Experiments:
DH5α E. coli = assay: Live cell filter assay in culture media (Millipore NCM filter, scintillation counter); type: cell-based; settings: for cell based signal over background signal: 10,000 cells incubated for 8 hours, Millipore NCM filter
Protocol: 10,000 cells were put into 2 ml of media (LB, SOB, SOC, DeTox™, or TB), and incubated for 8 hours at 37° C. and shaken at 250 rpm. The samples were then passed through the respective filters (Millipore and others) via a syringe, then the samples were washed with 40 ml of PBS via a syringe. The filter samples were counted using a scintillation counter.
Millipore NCM filters were also used in the live cell experiments. […] Moreover, LB and SOB media strongly potentiated the growth of the DH5α E. coli. The cell based signals are 42.78-fold and 82.63-fold, respectively, over background signal for these two media.
10,000, 50,000 or 100,000 DH5α cells were added into 1 ml SOB media, and 1 μl of 1.76 mM ^14C FIAU was added to the mixture to constitute a 1.76 μM solution. The mixture was incubated for 4 to 6 hours at 37° C. in an agitation incubator. After the incubation period, the mixture was passed through a 0.22 μm Millipore nitrocellulose filter. The filter was then washed with 40 ml of 1×PBS using a syringe. The CPM was determined using a scintillation counter.

DH5α (E. coli) cells = assay: Detection of cells spiked into human urine / SOB mix (filter assay); type: cell-based; settings: 10,000 DH5α cells, 50% urine and 50% SOB mix, 1.76 μM, 5 hours
Protocol: In another set of experiments, 10,000 DH5α cells were added into 1 ml human urine. 1 ml of SOB media and 2 μl of 1.76 mM ^14C FIAU was added to the mixture to constitute a 1.76 μM solution. The mixture was incubated for 5 hours at 37° C. in an agitation incubator. After the incubation period, the mixture was passed through a 0.22 μm Millipore nitrocellulose filter. The filter was then washed with 40 ml of 1×PBS using a syringe. The CPM was determined using a scintillation counter. Thus, 10,000 DH5α (E. coli) cells were detectable in a 50% urine and 50% SOB mix in 5 hours.

DH5α cells = assay: Detection of cells spiked into rat CSF / SOB mix (filter assay); type: cell-based, E. coli; settings: 10,000 cells, 50% CSF (rat) and 50% SOB, 1.76 μM, 5 hours or less
Protocol: An experiment was also performed to determine whether a shorter incubation period is possible. 10,000 DH5α cells were added into 1 ml rat CSF. 1 ml of SOB media and 2 μl of 1.76 mM ^14C FIAU was added to the mixture to constitute a 1.76 μM solution. The mixture was incubated for 5 hours at 37° C. in an agitation incubator. After the incubation period, the mixture was passed through a 0.22 μm Millipore nitrocellulose filter. The filter was then washed with 40 ml of 1×PBS using a syringe. The CPM was determined using a scintillation counter. Thus, 10,000 cells after 5 hours or less of incubation in a mixture containing 50% CSF and 50% SOB were detectable.

SMILES	cell based signal over background signal (DH5α E. coli; LB media) [fold]	cell based signal over background signal (DH5α E. coli; SOB media) [fold]	signal versus background (DH5α E. coli; 10,000 DH5α cells, 1 ml SOB, 1.76 μM (200 mCi/mmol), about 4 hours)	detectability of cells (DH5α (E. coli) cells)	detectability of cells (DH5α cells)
O=c1[nH]c(=O)n([C@@H]2O[C@H](CO)[C@@H](O)[C@@H]2F)cc1I [FIAU, 2′-fluoro-5-iodo-1-β-D-arabinofuranosyluracil]	42.78	82.63			
O=c1[nH][14c](=O)n([C@@H]2O[C@H](CO)[C@@H](O)[C@@H]2F)cc1I [^14C-FIAU, ^14C-labeled 2′-fluoro-5-iodo-1-β-D-arabinofuranosyluracil]			signal above the background	detectable	detectable
